Legend:
Format in all cases: cell-based, human
[1] = tested on: LNCaP-BRCA2-RB1 cells; experiment: qPCR of EMT transcription factors after androgen (R1881) treatment; conditions: 1 nM R1881, 48 hours in CSS (FIG. 3I)
Procedure: Scr-CRISPR and BRCA2-CRISPR2 cells were also transfected with non-targeting shRNA (scr-Sh) for control of shRNA. GAPDH served as the loading control. […] Nuclei were stained with DAPI (blue). […] Control cells were transfected with empty vector. […] GAPDH served as the loading control. […] LNCaP cells were used as control. GAPDH served as the loading control. […] Nuclei were stained with DAPI (blue). […] Equivalent volume of DMSO was used as placebo treatment. Cell growth was measured by MTT assay; SD, P-values determined by Student's t-test. […] LNCaP-BRCA2-RB1 or control cells were incubated in charcoal-stripped medium (CSS) for 24 hours followed by treatment with 1 nM R1881 for another 48 hours (in CSS). […] Expression of the indicated genes normalized with untreated control and GAPDH. […] Scrambled-SMARTpool siRNA transfected LNCaP cells were used as control. 2.5×10^3 indicated cells (72 hours after indicated siRNA transfection) were plated on the top of Boyden chamber in serum-free media; 10% serum in the bottom chamber was used as chemo-attractant. After 24 hours, cells in the lower side of the chamber were fixed, stained, photographed in 100× magnification (top panel), and counted and represented in the form of the bar graph (bottom panel). P-values were determined by Student's t-test.
RNA Extraction and qPCR. […] All quantifications were normalized to endogenous GAPDH.

[2] = tested on: BRCA2-null LNCaP cells; experiment: MTT cell growth of BRCA2 CRISPR-edited LNCaP cells with PARP inhibitors or cisplatin; conditions: BRCA2 knockout LNCaP vs control gRNA (scr) cells; complete medium, 6 days (FIG. 7C)
Procedure: Cells infected with scrambled (scr) gRNA were used as control. Equal amount of proteins was loaded in WedgeWell 6% gel and western blot was performed. ˜400 kDa BRCA2 band is indicated by arrow. GAPDH served as loading controls for western blot and qPCR. […] Genotypes are detected by PCR amplification followed by being treated with T7 endonuclease. Wt and mutant BRCA2 are indicated by red and green arrows, respectively. […] Equivalent volume of DMSO was used as placebo treatment. Cell growth was measured by MTT assay (see Example 1); SD, P-values determined by Student's t-test. *P<0.05, **P<0.01, ***P<0.001. FIGS. 7D-7E show the growth curve (FIG. 7D) and a bar graph (FIG. 7E) representing the cell growth of LNCaP BRCA2 CRISPR-edited and non-targeting control gRNA (scr) infected cells in complete medium supplemented with enzalutamide (ENZ; indicated concentration) for 7 days or charcoal-stripped medium (CSS) for 5 days, respectively. Equivalent volume of DMSO was used as placebo treatment. Cell growth was measured by crystal violet staining assay (see Example 1) (±SD); P-values determined by Student's t-test. […] Equivalent volume of DMSO was used as placebo treatment. Cell growth was measured by MTT assay (see Example 1) (±SD); P-values determined by Student's t-test. […] Total RNA was isolated, and BRCA2 mRNA was analyzed by qPCR. […] Cell growth was measured by MTT assay; SD, P-values determined by Student's t-test.
To generate BRCA2 knockout RWPE1 cells, BRCA2 gRNA2 was cloned into LentiCRISPRv2-GFP backbone which constitutively expresses Cas9 and GFP. Lentiviral infected cells were selected by FACS sorting for GFP positive cells (twice) and analyzed by western blot. […] Loss of BRCA2 in the pooled populations of LNCaP cells was analyzed by western blot using BRCA2-specific antibodies and this pooled population of cells was used for the following experiments. […]
Cell Proliferation Assay by MTT, BrdU and Crystal Violet. […] MTT crystals were dissolved in isopropanol and absorbance was measured in a BioTek plate reader at […] and represented graphically.

[3] = tested on: 22RV1 cells; experiment: MTT cell growth with PARPi or cisplatin; conditions: 22RV1, BRCA2 T3033Nfs*11, RB1-wt; cisplatin 500 nM, talazoparib 5 nM, 6 days (FIG. 11D)
Procedure: The ploidy of each cell line is indicated. […] Equivalent volume of DMSO was used as placebo treatment. Cell growth was measured by MTT assay (see Example 1); SD, each point indicates the MTT count of each well of 96-well plate, P-values determined by Student's t-test. **P<0.01, ****P<0.0001. […] Cell Proliferation Assay by MTT, BrdU and Crystal Violet. For MTT assay, cells were plated at 2.5×10^3 per well in 96-well plates in complete media (10% FBS) or media supplemented with 10% charcoal-stripped serum. Cells were either treated with DMSO or with indicated inhibitors. After indicated times, cells were incubated in 0.5 mg/mL MTT (Invitrogen) for 1 hour at 37° C. MTT crystals were dissolved in isopropanol and absorbance was measured in a BioTek plate reader at […] and represented graphically.

SMILES | SLUG mRNA (qPCR) [1] | sensitivity (cell growth, MTT) [2] | sensitivity (cell growth, MTT) [3]
C[C@]1(O)CC[C@H]2[C@@H]3CCC4=CC(=O)CCC4=C3C=C[C@@]21C [R1881] | significantly increased |  | 
N.N.[Cl][Pt][Cl] [cisplatin] |  | enhanced sensitivity | sensitivity

Reference: US20240150839A1, “METHODS FOR PREDICTING RESPONSIVENESS OF PROSTATE CANCER PATIENTS TO PARP INHIBITORS” (Memorial Sloan Kettering Cancer Center, priority 2019, published 2024)
